Strand notation (5' to 3'): a small letter for the sugar, then the base; units joined by * are phosphorothioate-linked, units joined directly phosphodiester-linked; [ ] holds rarer units or linkages, { } end groups; capitals alone tell only the bases. e = 2'-O-(2-methoxyethyl) (MOE); [5mC] = 5-methylcytosine; d = 2'-deoxy (DNA)
Legend:
Type in all cases: cell-based
[1] = tested on: human Factor 7 mRNA; assay: Antisense inhibition of human Factor 7 mRNA in HepB3 cells, 50 nM antisense oligonucleotide, lipofectin
Summary of the method: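 HepB3 cells were transfected by lipofectin with 50 nM antisense oligonucleotide and harvested after about 24 h. Factor 7 mRNA was measured by real-time RT-PCR (primer probe set RTS 2927 in some runs), normalized to RIBOGREEN total RNA, and reported as percent inhibition versus untreated control.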

[2] = tested on: human Factor 7 mRNA; assay: Dose-dependent antisense inhibition of human Factor 7 in HepB3 cells, lipofectin; settings: HepB3 cells, approx. 16 hours (Table 14)
Summary of the method: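 HepB3 cells (4,000/well) lipofectin-transfected with antisense oligonucleotide at 3.125 or 6.25 up to 100 nM for ~16 h. Factor 7 mRNA measured by real-time RT-PCR with primer probe set RTS 2927, adjusted to RIBOGREEN total RNA; expressed as percent inhibition versus untreated control cells.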

[3] = tested on: human Factor 7 mRNA; assay: Dose-dependent antisense inhibition of human Factor 7 in HepB3 cells, electroporation
Method: (§1) The gapmers were also transfected via electroporation and their dose-dependent inhibition of human Factor 7 mRNA was measured. Cells were plated at a density of 20,000 cells per well and transfected via electroporation with 3.125 μM, 6.25 μM, 12.5 μM, 25 μM, 50 μM, and 100 μM concentrations of antisense oligonucleotide, as specified in Table 15. After a treatment period of approximately 16 hours, RNA was isolated from the cells and Factor 7 mRNA levels were measured by quantitative real-time PCR. Human Factor 7 primer probe set RTS 2927 was used to measure mRNA levels. Factor 7 mRNA levels were adjusted according to total RNA content, as measured by RIBOGREEN®. Results are presented as percent inhibition of Factor 7, relative to untreated control cells.
as §1, with “Cells were” for “The gapmers were also transfected via electroporation and their dose-dependent inhibition of human Factor 7 mRNA was measured. Cells were”, “in […]. After a” for “in Table 15. After a”, “cells and human Factor 7” for “cells and Factor 7”

[4] = 3.125 μM, approx. 16 hours (Table 15, Example 7)
[5] = 6.25 μM, approx. 16 hours (Table 15, Example 7)
[6] = 12.5 μM, approx. 16 hours (Table 15, Example 7)
[7] = 25 μM, approx. 16 hours (Table 15, Example 7)
[8] = 50 μM, approx. 16 hours (Table 15, Example 7)
[9] = 100 μM, approx. 16 hours (Table 15, Example 7)

422177 (antisense e[5mC]*e[5mC]*e[5mC]*dG*d[5mC]*d[5mC]*dG*dG*d[5mC]*dT*d[5mC]*dT*dG*d[5mC]*dT*d[5mC]*dA*eT*e[5mC]*e[5mC]) [compound 422177]
% Inhibition (human Factor 7 mRNA levels) ([1]; oligonucleotides targeted to nucleobases 13760 to 13789 of SEQ ID NO: 1 (Table 10)): 74% | percent inhibition of Factor 7 mRNA, relative to untreated control cells ([2]; 3.125 nM): 12% | percent inhibition of Factor 7 mRNA, relative to untreated control cells ([2]; 12.5 nM): 44% | percent inhibition of Factor 7 mRNA, relative to untreated control cells ([2]; 25 nM): 64% | percent inhibition of Factor 7 mRNA, relative to untreated control cells ([2]; 50 nM): 81% | percent inhibition of Factor 7 mRNA, relative to untreated control cells ([2]; 100 nM): 88% | percent inhibition of Factor 7 mRNA, relative to untreated control cells [2]: 24% | percent inhibition of Factor 7 mRNA, relative to untreated control cells [3, 4]: 3% | percent inhibition of Factor 7 mRNA, relative to untreated control cells [3, 5]: 10% | percent inhibition of Factor 7 mRNA, relative to untreated control cells [3, 6]: 29% | percent inhibition of Factor 7 mRNA, relative to untreated control cells [3, 7]: 21% | percent inhibition of Factor 7 mRNA, relative to untreated control cells [3, 8]: 31% | percent inhibition of Factor 7 mRNA, relative to untreated control cells [3, 9]: 63%

422228 (antisense eT*eG*d[5mC]*dA*dT*dG*dG*dT*dG*dA*dT*dG*d[5mC]*dT*dT*e[5mC]*eT*eG*eA*eA) [compound 422228]
% Inhibition ([1]; Table 13 (microwalk), 50 nM, lipofectin, approximately 24 hours): 73% | percent inhibition of Factor 7 mRNA, relative to untreated control cells ([2]; 3.125 nM): 17% | percent inhibition of Factor 7 mRNA, relative to untreated control cells ([2]; 12.5 nM): 43% | percent inhibition of Factor 7 mRNA, relative to untreated control cells ([2]; 25 nM): 60% | percent inhibition of Factor 7 mRNA, relative to untreated control cells ([2]; 50 nM): 78% | percent inhibition of Factor 7 mRNA, relative to untreated control cells ([2]; 100 nM): 90% | percent inhibition of Factor 7 mRNA, relative to untreated control cells [2]: 25% | percent inhibition of Factor 7 mRNA, relative to untreated control cells [3, 4]: 18% | percent inhibition of Factor 7 mRNA, relative to untreated control cells [3, 5]: 33% | percent inhibition of Factor 7 mRNA, relative to untreated control cells [3, 6]: 40% | percent inhibition of Factor 7 mRNA, relative to untreated control cells [3, 7]: 47% | percent inhibition of Factor 7 mRNA, relative to untreated control cells [3, 8]: 71% | percent inhibition of Factor 7 mRNA, relative to untreated control cells [3, 9]: 83%

422292 (antisense eG*eT*dT*d[5mC]*dT*dG*d[5mC]*dA*dG*dG*dA*dG*d[5mC]*dG*dG*e[5mC]*e[5mC]*eT*eA*eA) [compound 422292]
% Inhibition of human Factor 7 mRNA levels ([1]; gapmers targeted to nucleobases 4868 to 4899 of SEQ ID NO: 1, Table 8): 75% | percent inhibition of Factor 7 mRNA, relative to untreated control cells ([2]; 3.125 nM): 13% | percent inhibition of Factor 7 mRNA, relative to untreated control cells ([2]; 12.5 nM): 44% | percent inhibition of Factor 7 mRNA, relative to untreated control cells ([2]; 25 nM): 63% | percent inhibition of Factor 7 mRNA, relative to untreated control cells ([2]; 50 nM): 81% | percent inhibition of Factor 7 mRNA, relative to untreated control cells ([2]; 100 nM): 83% | percent inhibition of Factor 7 mRNA, relative to untreated control cells [2]: 21% | percent inhibition of Factor 7 mRNA, relative to untreated control cells [3, 4]: 36% | percent inhibition of Factor 7 mRNA, relative to untreated control cells ([3]; 3.125 μM, approx. 16 hours (Table 16, Example 8 confirmation)): 31% | percent inhibition of Factor 7 mRNA, relative to untreated control cells [3, 5]: 25% | percent inhibition of Factor 7 mRNA, relative to untreated control cells ([3]; 6.25 μM, approx. 16 hours (Table 16, Example 8 confirmation)): 40% | percent inhibition of Factor 7 mRNA, relative to untreated control cells [3, 6]: 47% | percent inhibition of Factor 7 mRNA, relative to untreated control cells ([3]; 12.5 μM, approx. 16 hours (Table 16, Example 8 confirmation)): 68% | percent inhibition of Factor 7 mRNA, relative to untreated control cells [3, 7]: 59% | percent inhibition of Factor 7 mRNA, relative to untreated control cells ([3]; 25 μM, approx. 16 hours (Table 16, Example 8 confirmation)): 75% | percent inhibition of Factor 7 mRNA, relative to untreated control cells [3, 8]: 75% | percent inhibition of Factor 7 mRNA, relative to untreated control cells ([3]; 50 μM, approx. 16 hours (Table 16, Example 8 confirmation)): 82% | percent inhibition of Factor 7 mRNA, relative to untreated control cells [3, 9]: 86% | percent inhibition of Factor 7 mRNA, relative to untreated control cells ([3]; 100 μM, approx. 16 hours (Table 16, Example 8 confirmation)): 83%
